In patent EP0517347A1, “New combinations for the treatment of Parkinsons disease, containing NMDA-antagonists” (SCHERING AKTIENGESELLSCHAFT, priority 1991, dated 1992):

Legend:
[1] = tested on: unilateral Substantia nigralädierten Ratten; test: Induction of contralateral rotations in rats with unilateral 6-OHDA lesion of the substantia nigra (automated rotometer); type: in vivo, Wistar-Ratten
Method: Die erfindungsgemäße Wirkung wird am Beispiel des CPP dargestellt: Auslösung von kontralateralen Rotationen an unilateral Substantia nigralädierten Ratten. Männliche Wistar-Ratten wurden 8 Monate vor dem Experiment durch Injektion von 16 µg 6-Hydroxydopamin (6-OHDA) in die linke Substantia nigra lädiert. Die Messung der Rotationen erfolgte in automatisierten Rotometern. Die Tiere wurden in Plexiglas-Halbschalen (Durchmesser 40 cm) gesetzt und mechanisch mit einem Winkelschrittgeber verbunden. Die Bewegungen mit und entgegen dem Uhrzeigersinn wurden getrennt in 10-Minuten-Intervallen für 2 Stunden erfasst.
Die Ergebnisse dieser Versuche lassen sich wie folgt zusammenfassen: Die mit Lösungsmitteln behandelten Tiere zeigen kaum spontane Rotationen.

[2] = tested on: MPTP-behandelten Pinselohräffchen; test: Experimental Parkinson syndrome induced by the neurotoxin MPTP in marmosets; type: in vivo
Method: In gleicher Weise wurden die erfindungsgemäßen Verbindungen am Pinselohräffchen untersucht, bei denen durch das Neurotoxin MPTP ein experimentelles Parkinsonsyndrom erzeugt wurde.
Im gleichen Modell wurde CPP (0.1, 0.39, 1.56 mg/kg i.p.) mit den direkten Dopaminagonisten Apomorphin (0.05 mg/kg i.p. ) oder Lisurid (0.1 mg/kg i.p. ) geprüft (Abb. 3 und 4).

Row | SMILES | durch L-Dopa induzierte Rotationen ([1]; CPP 0,025, 0,39, 1,56 and 6,25 mg/kg i.p. added to L-Dopa 25 mg/kg i.p. + Benserazid 100 mg/kg i.p., Abb. 1) | Zahl der Rotationen in 2 Stunden ([1]; highest dose of CPP (6,25 mg/kg i.p.) plus L-Dopa + Benserazid, compared with L-Dopa treatment, Abb. 1) | Wirkung von L-Dopa und Benserazid ([2]; CPP 0,1, 0,39, 1,56 mg/kg i.p. added to L-Dopa 20 mg/kg i.p. + Benserazid 20 mg/kg i.p., Abb. 2) | kombinierte Behandlung mit Apomorphin ([2]; CPP 0.1, 0.39, 1.56 mg/kg i.p. with Apomorphin 0.05 mg/kg i.p., analysis of variance and Tukey test, p < 0.0.1, Abb. 3 und 4) | kombinierte Behandlung mit Lisurid ([2]; CPP 0.1, 0.39, 1.56 mg/kg i.p. with Lisurid 0.1 mg/kg i.p., analysis of variance and Tukey test, p < 0.0.1, Abb. 3 und 4) | Rotationsbewegungen ([1]; L+Dopa 25 mg/kg i.p. and Benserazid 100 mg/kg i.p., without CPP, 6-OHDA-lesioned rats)
1 | O=C(O)C1CN(CCCP(=O)(O)O)CCN1 (racemic) [CPP, 3-((±)-2-carboxy-piperazin-4-yl)-propyl-1-phosphonsäure] | dosisabhängig verstärkt | signifikant von der L-Dopa Behandlung verschieden | dosisabhängig verstärkt | signifikantem Synergismus | signifikantem Synergismus | 
2 | N[C@@H](Cc1ccc(O)c(O)c1)C(=O)O [L+Dopa] |  |  |  |  |  | leichte Rotationsbewegungen
